From patent publication US20040023386A1, “Modulation of nitric oxide synthase by PKC” (Joslin Diabetes Center, Inc., a Massachusetts corporation, priority 2000, published 2004)

Assays:
eNOS mRNA [1] = test: eNOS mRNA level in BAECs (Northern blot); format: cell-based, bovine
Procedure: (§1) Bovine aortic endothelial cells (BAECs) from passages 4 to 10 were isolated. Confluent cells were placed in DMEM containing 1% platelet-deprived horse serum (PDHS) for 24 hours before being studied and pretreated with the following inhibitors: phosphatidylinositol-3 (PI-3) kinase-selective inhibitors wortmannin (Sigma Chemical Co) and LY294002 (BIOMOL Research Laboratories), protein kinase C (PKC) activator phorbol-12-myristate-13-acetate (PMA) (Sigma Chemical Co), general PKC inhibitor GF109203X (GFX) (Calbiochem-Novabiochem Corp), and PKCβ isoform-selective inhibitor LY333531 (Lilly Inc). Cells were then stimulated with insulin (Sigma Chemical Co), recombinant insulin-like growth factor-1 (IGF-1) (Upstate Biotechnology), and LPC (Avanti Polar Lipid) or alpha-IR3 antibodies.
(§2) Total RNA from cultured BAECs, PKCβ1-overexpressed BAECs, and vascular stroma from the epididymal fat pads of Zucker rats were isolated according to the guanidinium thiocyanate-phenol-chloroform method with TRI Reagent (Molecular Research Center) and solution D containing 4 mol/L guanidinium thiocyanate, 25 mmol/L sodium citrate, pH 7.0, 0.5% sarcosyl, and 0.1 mol/L 2-mercaptoethanol. Total RNA (20 μg) was fractionated and hybridized to 650-bp cDNA fragments of rat eNOS (kindly provided by Dr Mark A. Perella and Arthur M. E. Lee, Harvard School of Public Health, Boston, Mass.), which were labeled with the use of a DNA labeling system (Multiprime; Amersham Corp). The quantification of eNOS mRNA levels was performed with a PhosphorImager (Molecular Dynamics) and normalized to 36B4 mRNA.

eNOS protein = test: Immunoblot analysis of eNOS protein in BAECs; format: cell-based, bovine
Procedure: as §1
Cells were washed 3 times with ice-cold PBS, pH 7.4, lysed in 50 mmol/L Tris, pH 7.5, 2 mmol/L EDTA, 0.5 mmol/L EGTA, 2 mmol/L PMSF, 25 μg/mL leupeptin, 0.1 mg/mL aprotinin, 1 mmol/L dithiothreitol, 50 mmol/L NaF, and 1% Triton X-100 (Sigma Chemical Co); scraped from the dish; rotated for 1 hour at 4° C.; and centrifuged for 15 minutes at 14 000 g. Protein concentrations of the supernatant were measured according to the method of Bradford and separated with the use of 6% SDS-PAGE. The membrane was incubated for 1 hour with polyclonal anti-human eNOS antibody (Transduction Laboratories) diluted in PBS containing 0.1% Tween-20 and 1% BSA, washed 3 times for 10 minutes with PBS containing 0.1% Tween-20, and incubated with 0.1 μCi/ML ^125I-protein A (Amersham Life Science, Inc). Protein levels of eNOS were quantified with a PhosphorImager.

[2] = test system: IRS-2-associated PI-3 kinase; test: Assay of IRS-2-associated PI-3 kinase activity in BAECs; format: cell-based, bovine
Procedure: After preincubation with or without 100 nmol/L PMA for 30 minutes, BAECs were stimulated with insulin (100 nmol/L) for 5 minutes. Cells were processed as described previously for this assay. Aliquots of proteins from the supernatant were immunoprecipitated with 10 μL/ml anti-alpha-insulin receptor substrates (IRS)-2 antibodies (kindly provided by Dr Morris F. White, Joslin Diabetes Center, Boston, Mass) for 2 hours and bound to protein A-Sepharose beads at 4° C. as described previously. The lipids were quantified with a PhosphorImager.

NOS activity = test: Assay of NOS activity in BAECs; format: cell-based, bovine; settings: insulin 100 nmol/L
Procedure: The amount of NOS activity produced by BAECs was measured by using an NOS Detect assay kit (Transduction Laboratories) according to the manufacturer's instructions. Briefly, BAECs were harvested in PBS containing 1 mmol/L EDTA and centrifuged at 12 000 g. The pellets were lysed in homogenization buffer containing 25 mmol/L Tris, pH 7.4, 1 mmol/L EDTA, and 1 mmol/L EGTA and centrifuged at 12 000 g. Aliquots from the supernatant were used for the measurement of NOS activity through the conversion of [^3H]L-arginine to [^3H]L-citrulline. Data were normalized by the amount of protein and reaction time.

eNOS mRNA [3] = test: eNOS mRNA level in human umbilical endothelial cells; format: cell-based; settings: IGF-1 25 nmol/L
eNOS mRNA [4] = test: eNOS mRNA level in adenovirus-infected BAECs (PKCβ1 or β-Gal); format: cell-based, bovine; settings: for increase of eNOS mRNA levels: LPC 100 μmol/L
Procedure: The construction of a replication-deficient recombinant adenovirus for PKCβ1 expression was performed as described in Becker et al. Methods Cell Biol. 1994;43:161-189. Adenovirus-mediated gene transfer to confluent BAECs was performed through a 1-hour adenoviral infection of 10^9 pfu/mL at 37° C. in DMEM containing 10% PDHS. The infected BAECs were then incubated in DMEM containing 1% PDHS for 24 hours, incubated with or without insulin (100 nmol/L) for an additional 6 hours, and harvested. AdV-CMV-PKCβ1- or β-galactosidase (β-Gal)-infected BAECs were assessed for PKC activity and protein expression as previously described.
as §2

eNOS mRNA [5] = test: eNOS mRNA level in vascular stroma from epididymal fat pads of Zucker rats; format: cell-based; settings: insulin 100 nmol/L, 6 hours
Procedure: Vascular stromas were obtained from the epididymal fat pads of 12-week-old Zucker lean and fatty rats (Harlan Sprague Dawley, Inc). Epididymal fat pads were isolated, minced, and incubated with 0.2% collagenase I for 30 minutes at 37° C. Then, they were fractionated with the use of a Dounce homogenizer and centrifuged at 3000 g for 20 minutes to isolate vessels from adipocytes. Vascular stroma were washed with DMEM containing 0.2% BSA and incubated with DMEM containing 0.2% BSA with or without insulin for 6 hours at 37° C. T he purity of the isolated vascular stroma was quantified through immunohistochemical staining with anti-factor VIII antibody and through immunoblotting of the stroma with antibodies to smooth muscle cell alpha-actin. Only preparations that were stained positively in more than 90% of the vessels were used.
Total RNA from cultured BAECs, PKCβ1-overexpressed BAECs, and vascular stroma from the epididymal fat pads of Zucker rats were isolated according to the guanidinium thiocyanate-phenol-chloroform method with TRI Reagent (Molecular Research Center) and solution D containing 4 mol/L guanidinium thiocyanate, 25 mmol/L sodium citrate, pH 7.0, 0.5% sarcosyl, and 0.1 mol/L 2-mercaptoethanol. […] The quantification of eNOS mRNA levels was performed with a PhosphorImager (Molecular Dynamics) and normalized to 36B4 mRNA.

With `CN(C)CCCn1cc(C2=C(c3c[nH]c4ccccc34)C(=O)NC2=O)c2ccccc21` [GFX, reference compound] the “increase of eNOS mRNA expression” value (eNOS mRNA [1]; GFX 5 μmol/L without insulin, 6 hours) was 38±10% and the “increase of eNOS mRNA expression compared with control cells” value (eNOS mRNA [1]; both insulin and GFX) was 76±20%.
`O=c1cc(N2CCOCC2)oc2c(-c3ccccc3)cccc12` [LY294002, reference compound] was tested, and the “decrease of basal eNOS mRNA expression” value (eNOS mRNA [1]; LY294002 50 nmol/L, without insulin treatment) was 30±4% and the “decrease of basal eNOS protein level” value (eNOS protein; LY294002 50 nmol/L) was 72±5%.
For `CN(C)C[C@@H]1CCn2cc(c3ccccc32)C2=C(C(=O)NC2=O)c2cn(c3ccccc23)CCO1` [LY333531, reference compound], the “increase of eNOS mRNA expression” value (eNOS mRNA [1]; LY333531 20 nmol/L) was 60±14%.
With `CCCCCCCCCCCCCC(=O)O[C@@H]1[C@@H](C)[C@@]2(O)[C@@H](C=C(CO)C[C@]3(O)C(=O)C(C)=C[C@@H]23)[C@@H]2C(C)(C)[C@]12OC(C)=O` [PMA, phorbol-12-myristate-13-acetate, reference compound] the “increase of eNOS mRNA expression” value (eNOS mRNA [1]; PMA 100 nmol/L, 12 hours) was 66±11%, the “increase of eNOS mRNA expression” value (eNOS mRNA [1]; PMA 100 nmol/L, 24 hours) was 105±14% and the “change of eNOS mRNA level” value (eNOS mRNA [1]; PMA 100 nmol/L, initial 6 hours) was “did not change”. The “remaining effect of insulin on eNOS mRNA levels after PMA preincubation” value (eNOS mRNA [1]; preincubated with PMA for 30 minutes, then insulin) was 14±13%, the “effect on insulin-induced IRS-2-associated PI-3 kinase activity” value ([2]; PMA 100 nmol/L preincubation 30 minutes) was “mostly inhibited” and the “basal PI-3 kinase activity” value ([2]; PMA treatment) was “not changed”.
In the case of `COC[C@H]1OC(=O)c2coc3c2[C@@]1(C)C1=C(C3=O)[C@@H]2CCC(=O)[C@@]2(C)C[C@H]1OC(C)=O` [wortmannin, reference compound], the “insulin-induced NOS activity after preincubation with inhibitor” value (NOS activity; wortmannin 100 nmol/L preincubation for 15 minutes) is reported as 123±13 pmol/mg protein min.
“IGF-1: recombinant insulin-like growth factor-1 (Upstate Biotechnology)” was tested, and the “increase of eNOS mRNA level” value (eNOS mRNA [3]) was 47±10%.
With “insulin: insulin (Sigma Chemical Co), used to stimulate endothelial cells” the “concentration at which maximal effect on eNOS mRNA level was attained” value (eNOS mRNA [1]) was under 100 nmol/L, the “response of eNOS mRNA expression” value (eNOS mRNA [1]; insulin 0.1 nmol/L) was “significant increase” and the “increase of eNOS mRNA level” value (eNOS mRNA [1]; insulin 10 nmol/L) was 50±12%. For the same compound, the “maximum effect on eNOS mRNA level (dose response)” value (eNOS mRNA [1]; insulin 100 nmol/L) was 2 fold, the “increase of eNOS mRNA expression” value (eNOS mRNA [1]; insulin 100 nmol/L, 1 hour) was 33±9% and the “increase of eNOS mRNA expression” value (eNOS mRNA [1]; insulin 100 nmol/L, 6 hours) was 71±21%. The “maximum increase of eNOS mRNA expression” value (eNOS mRNA [1]; insulin 100 nmol/L, 12 hours, maintained for 24 hours) was 2 fold, the “increase of eNOS mRNA level compared with control” value (eNOS mRNA [1]; insulin 100 nmol/L, Example 2) was 58±20% and the “increase of eNOS protein level” value (eNOS protein; insulin 100 nmol/L, Example 2) was 74±9%. The “increase of eNOS protein levels” value (eNOS protein; insulin, 6 hours) was 43±16%, the “maximum increase of eNOS protein levels” value (eNOS protein; insulin, 24 hours, maintained for 36 hours) was 2 fold and the NOS activity (NOS activity; after 24 hours) was 176±7 pmol/mg protein min. The “increase of IRS-2-associated PI-3 kinase activity” value ([2]; insulin 100 nmol/L, 5 minutes) was 5.4±0.4 fold, the “enhancement of eNOS mRNA expression” value (eNOS mRNA [4]; insulin 100 nmol/L, BAECs with or without adenovirus containing only β-Gal) was at most 2 fold and the “change of eNOS mRNA levels” value (eNOS mRNA [4]; insulin, cells infected with adenovirus containing the PKCβ1 isoform) was “did not increase”. For the same compound, the “increase of eNOS mRNA levels” value (eNOS mRNA [5]; vascular stroma from Zucker lean rats) was 50±16% and the “effect on eNOS mRNA levels” value (eNOS mRNA [5]; vascular stroma from insulin-resistant (Zucker fatty) rats) was “ineffective”.
lysophosphatidylcholine [LPC] was tested, and the “increase of eNOS mRNA levels” value (eNOS mRNA [4]; adenovirus-containing β-Gal cells) was 4.5 fold, the “increase of eNOS mRNA levels” value (eNOS mRNA [4]; control cells) was 5 fold and the “increase of eNOS mRNA” value (eNOS mRNA [4]; LPC, BAECs infected with the adenoviral-PKCβ1 isoform) was 4 fold.
